Each structure is given as a SMILES string.

Test [1] addresses PI3Kα[WT]/[E542K]/[E545K]/[H1047R]/PI3Kβ/γ/δ. Briefly: PI3K enzyme activity assay (ADP-Glo). It is filed as biochemical. The conditions noted are these: PI3K kinase reaction, isoform not given. Here is the method: Experimental Example 1: PI3Kα[WT]/[E542K]/[E545K]/[H1047R]/PI3Kβ/γ/δ Enzyme Activity Assay
PI3Kα[WT], PI3Kα[E542K], PI3Kα[E545K], PI3Kα[H1047R], PI3Kβ, PI3Kγ and PI3Kδ kinase reaction was performed in 384-well plate (PerkinElmer, #6008280), with a reaction system of 4 μL. PI3Kα[WT] enzyme solution (Promega, #V1721) or PI3Kα[E542K] enzyme solution (CarnaBio, #11-413-20N) or PI3Kα[E545K] enzyme solution (CarnaBio, #11-414-20N) or PI3Kα[H1047R] enzyme solution (Promega, #V1741) or PI3Kβ enzyme solution (Promega, #V1751) or PI3Kγ enzyme solution (ThermoFisher, #PV4786) or PI3Kδ enzyme solution (ThermoFisher, #PV6451) were added to 384-well plate, and then gradiently diluted compounds were added (starting at a final concentration of 10 μM, 3-fold dilution, 10 doses), followed by adding PIP2: 3PS (Promega, #V1701) and ATP solution (Promega, #V915B) to the plate. After incubation at 25° C. for 1 h, ADP-Glo reagent buffer (Promega, #V9102) was added to each well. The plate was sealed and incubated at 25° C. for 40 min, and then 10 μL of ADP-Glo detection buffer (Promega, #V9102) was added to each well. After incubating at 25° C. for 40 min, the chemiluminescence value was read using an instrument.
The experimental results are shown in the ADP Glo IC50 column in Table 2.

The subject of another test is T47D cells. As to the kind of experiment: Inhibitory effects on the proliferation of T47D cells (CellTiter-Glo). Conditions: Homo sapiens, 168 h, 7 days. In kind it is cell-based. A digest of the protocol: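 T47D cells (1000/well, RPMI 1640 + 10% FBS) cultured 24 h, then exposed 7 days at 37 °C to 9 compound concentrations, 3-fold dilutions from 10 μM final. Viability by CellTiter-Glo luminescence; IC50 derived.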

Consider `Cc1cc([C@@H](C)Nc2ccc(Cl)nc2C(=O)O)c2nc(-c3ccc(F)cn3)n(C)c(=O)c2c1` [Compound 66, (R)-6-chloro-3-((1-(2-(5-fluoropyridin-2-yl)-3,6-dimethyl-4-oxo-3,4-dihydroquinazolin-8-yl)ethyl)amino)pyridinecarboxylic Acid], for which the 50% inhibitory concentration (IC50) (in test [1]; in the test on T47D cells) was less than 1000 nM in each case.

As for `C[C@@H](Nc1ccc(Cl)nc1C(=O)O)c1cc(F)cc2c(=O)n(C)c(-c3ccc(F)cn3)nc12` [Compound 74], the IC50 (in test [1]; in the test with T47D cells) was less than 1000 nM each time.

These data come from patent US20260015341A1, “PI3K INHIBITOR, PREPARATION METHOD THEREFOR, AND USE THEREOF” (HINOVA PHARMACEUTICALS INC., priority 2022, published 2026).
